# Legend:
# [1] = tested on: Fusobacterium necrophorum; test: MIC, anaerobic bacteria; format: cell-based
# Ruminal VFA = test: Ruminal volatile fatty acids in vitro; set-up: species or system steer; conditions: 16 hours, 38°C
# Text: Rumen fluid is obtained from a steer with a surgically-installed fistula opening into the rumen. The steer is maintained on a high-grain ration, the composition of which follows:
# A sample of rumen fluid is strained through four layers of cheesecloth, and the filtrate is collected. The particulate matter retained by the cheesecloth is resuspended in enough physiological buffer to return it to the original volume of the rumen fluid, and this suspension is strained again. The buffer used has the following composition:
# The two filtrates are combined and allowed to stand until particulate matter separates to the top. The clear layer is separated, diluted with the same buffer (1:1) and then adjusted to pH 7.0.
# The diluted rumen fluid (10 ml) is placed in a 25-ml flask with 40 mg of the above-described feed, an additional 5 mg of soybean protein, and the test compound. Four replicate flasks are used per treatment. Two sets of four control flasks each are also employed. A zero-time control and an incubated 16-hour control are used. All test flasks are incubated for 16 hours at 38°C. After incubation, the pH is measured; and 25 percent metaphosphoric acid (2 ml) is added to each flask. The samples are allowed to settle, and the supernatant is analyzed by gas chromatography for propionate, acetate, butyrate compounds.
# Test-compound results are statistically compared with control results.
# [2] = tested on: Staphylococcus aureus 3130; test: Disc-plate MIC; conditions: Disc-Plate Method; benzylpenicillin-resistant, methicillin-resistant
# Clostridium perfringens = test: microbe, parasite or virus in culture; format: cell-based
# Proteus sp. = test: Disc-plate MIC; conditions: Disc-Plate Method
# Streptococcus pyogenes [3] = test: Disc-plate MIC; conditions: Disc-Plate Method
# [4] = tested on: Staphylococcus aureus 3055; test: Agar-dilution MIC; format: cell-based; conditions: Agar-Dilution Method, benzylpenicillin-susceptible
# [5] = tested on: Staphylococcus aureus 3055; test: Disc-plate MIC; conditions: Disc-Plate Method; benzylpenicillin-susceptible
# Treponema hyodysenteriae = test: Agar-dilution MIC, anaerobe; format: cell-based; conditions: Brachyspira hyodysenteriae; agar-dilution method; anaerobic
# Text: The A-2315 antibiotics are also active against anaerobic bacteria. In one aspect of this activity, the A-2315 antibiotics are active against Treponema hyodysenteriae, a cause of swine dysentery. The minimal concentrations of A-2315 factors which inhibit this organism, as determined by the agar-dilution method, are as follows: […]
# [6] = tested on: Bacteriodes fragilis ssp. vulgates; test: MIC, anaerobic bacteria; format: cell-based
# Bacillus subtilis = test: Disc-plate MIC; conditions: Disc-Plate Method
# Mycoplasma gallisepticum = test: Activity in chicks infected with Mycoplasma gallisepticum; format: in vivo, chickens
# Method: The antibiotic factor was prepared in polyethylene glycol 200 and injected subcutaneously in the neck.
# Sarcina lutea = test: Disc-plate MIC; conditions: Disc-Plate Method
# [7] = tested on: Klebsiella pneumoniae KA14; test: Disc-plate MIC; conditions: Disc-Plate Method
# [8] = tested on: Mycoplasma gallisepticum isolate 41313 (tylosin resistant); test: Broth-dilution MIC; format: cell-based; conditions: Mycoplasmoides gallisepticum
# Text: (§1) Another useful property of the A-2315 antibiotics is activity against Mycoplasma gallisepticum, an organism pathogenic for poultry. Of particular interest is the activity of the A-2315 antibiotics against strains of this organism that are resistant to tylosin. The minimal inhibitory concentrations of A-2315 factor A, as determined by in vitro broth-dilution studies, are summarized in Table V below: […]
# [9] = tested on: Mycoplasma gallisepticum isolate 42854 (tylosin resistant); test: Broth-dilution MIC; format: cell-based; conditions: Mycoplasmoides gallisepticum
# Text: as §1
# [10] = tested on: Mycoplasma gallisepticum isolate 43480 (tylosin resistant); test: Broth-dilution MIC; format: cell-based; conditions: Mycoplasmoides gallisepticum
# Text: as §1
# [11] = tested on: Mycoplasma gallisepticum isolate 38502 (tylosin sensitive); test: Broth-dilution MIC; format: cell-based; conditions: Mycoplasmoides gallisepticum
# Text: as §1
# [12] = tested on: Mycoplasma gallisepticum isolate 34159 (tylosin resistant); test: Broth-dilution MIC; format: cell-based; conditions: Mycoplasmoides gallisepticum
# Text: as §1
# Eubacterium aerofaciens = test: MIC, anaerobic bacteria; format: cell-based; conditions: Collinsella aerofaciens
# Streptococcus pyogenes [13] = test: Protection of mice against experimental bacterial infection; format: in vivo; conditions: sc, subcutaneous, two doses
# Method: When two doses each of A-2315 factors were administered to mice in illustrative infections, the ED50 values [effective dose in mg/kg to protect 50 percent of the test aninals; see Warren Wick, et al., J. Bacteriol.
# Candida albicans = test: Disc-plate MIC; conditions: Disc-Plate Method
# Salmonella typhosa = test: Agar-dilution MIC; conditions: Salmonella enterica
# [14] = 0.1 mcg per ml diluted rumen fluid
# [15] = 0.3 mcg per ml diluted rumen fluid
# [16] = 1.0 mcg per ml diluted rumen fluid
# [17] = 3 mg./chick, subcutaneous, at 14 Days, infected controls 7/7
# [18] = surviving infected chickens, subcutaneous
smiles,measurement,setting,value
CC1=CC(O)CC(O)Cc2nc(co2)C(=O)NC(C)C(=O)OC(C(C)C)C(C)C=CC(=O)NCC=C1 (stereo not drawn) [Factor A],MIC,[1],16 µg/mL
same,"Acetate, ratio of VFA concentration treated to control",Ruminal VFA; [14],0.97
same,"Butyrate, ratio of VFA concentration treated to control",Ruminal VFA; [14],1.01
same,"Propionate, ratio of VFA concentration treated to control",Ruminal VFA; [14],1.07
same,"Total VFA, ratio of concentration treated to control",Ruminal VFA; [14],1.04
same,"Acetate, ratio of VFA concentration treated to control",Ruminal VFA; [15],0.95
same,"Butyrate, ratio of VFA concentration treated to control",Ruminal VFA; [15],1.00
same,"Propionate, ratio of VFA concentration treated to control",Ruminal VFA; [15],1.08
same,"Total VFA, ratio of concentration treated to control",Ruminal VFA; [15],1.07
same,"Acetate, ratio of VFA concentration treated to control",Ruminal VFA; [16],0.95
same,"Butyrate, ratio of VFA concentration treated to control",Ruminal VFA; [16],1.04
same,"Propionate, ratio of VFA concentration treated to control",Ruminal VFA; [16],1.15
same,"Total VFA, ratio of concentration treated to control",Ruminal VFA; [16],1.05
same,MIC,[2],0.2 μg/disc
same,MIC,Clostridium perfringens,32 µg/mL
same,MIC,Proteus sp.,100. μg/disc
same,MIC,Streptococcus pyogenes [3],0.012 μg/disc
same,MIC,[4],6.25 µg/mL
same,MIC,[5],0.025 μg/disc
same,MIC,Treponema hyodysenteriae,< 0.195 µg/mL
same,MIC,[6],64 µg/mL
same,MIC,Bacillus subtilis,50. μg/disc
same,No. Died / No. in Group,"Mycoplasma gallisepticum; 3 mg./chick, subcutaneous in neck, infected",12/20
same,Dead Chicks: Air-Sac Lesions,"Mycoplasma gallisepticum; 3 mg./chick, subcutaneous, 3/9 not examined due to decomposition",9/9
same,Survivors: Air-Sac Lesions,Mycoplasma gallisepticum; [17],0/8
same,Survivors: MG Antibody,Mycoplasma gallisepticum; [17],8/8
same,Survivors: Average Weight,"Mycoplasma gallisepticum; 3 mg./chick, subcutaneous, at 14 Days, infected controls 100 gm., normal controls 214 gm.",133 gm.
same,signs of toxicity,"Mycoplasma gallisepticum; infected chickens, in polyethylene glycol 200, subcutaneous in the neck","No signs of toxicity were seen, except for slight hemorrhage in the neck area in some of the treated chicks that died early"
same,incidence of air-sac lesions,Mycoplasma gallisepticum; [18],lowered incidence of air-sac lesions
same,weight advantage,Mycoplasma gallisepticum; [18],some weight advantage
same,MIC,Sarcina lutea,0.008 μg/disc
same,MIC,[7],50.0 μg/disc
same,MIC,[8],0.78 µg/mL
same,MIC,[9],0.195 µg/mL
same,MIC,[10],< 0.097 µg/mL
same,MIC,[11],< 0.097 µg/mL
same,MIC,[12],0.195 µg/mL
same,MIC,Eubacterium aerofaciens,16 µg/mL
same,ED50,"Streptococcus pyogenes [13]; Test I, challenge 10,000 × LD50 (ip)",83 mg/kg
same,ED50,Streptococcus pyogenes [13]; Test II,27.4 mg/kg
same,MIC,Candida albicans,100.0 μg/disc
same,MIC,Salmonella typhosa,> 100 µg/mL
